How the values were obtained:
Test in all cases: relative viability (nuclei count vs DMSO), 5 days (fraction); higher = more cells survive
PAC-1 + Linsitinib = compound: C=CCc1cccc(/C=N/NC(=O)CN2CCN(Cc3ccccc3)CC2)c1O [PAC-1] + C[C@]1(O)C[C@@H](c2nc(-c3ccc4ccc(-c5ccccc5)nc4c3)c3c(N)nccn32)C1 [Linsitinib] (partner 1 µM)
Method in brief: (§1)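 Lung cancer cell lines were seeded in 1536-well plates and dosed by pin tool the next day, with either a single drug or a fixed anchor-drug dose combined with five library-drug doses (not always all listed) spaced in √10 steps. Five days later, one step fixed the cells and stained their nuclei (final 0.05% Triton X-100, 1% formaldehyde, 1 ug/ml Hoechst), and nuclei were counted on 4× images. Relative viability is the nuclei count in treated wells divided by the count in vehicle wells, and each value is the median of duplicate plates.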

Ibrutinib + Lapatinib = compound: C=CC(=O)N1CCC[C@@H](n2nc(-c3ccc(Oc4ccccc4)cc3)c3c(N)ncnc32)C1 [Ibrutinib] + CS(=O)(=O)CCNCc1ccc(-c2ccc3ncnc(Nc4ccc(OCc5cccc(F)c5)c(Cl)c4)c3c2)o1 [Lapatinib] (partner 2 µM)
Method in brief: as §1

Ibrutinib + AZD7762 = compound: C=CC(=O)N1CCC[C@@H](n2nc(-c3ccc(Oc4ccccc4)cc3)c3c(N)ncnc32)C1 [Ibrutinib] + NC(=O)Nc1cc(-c2cccc(F)c2)sc1C(=O)N[C@H]1CCCNC1 [AZD7762] (partner 0.2 µM)
Method in brief: as §1

Ibrutinib + Decitabine = compound: C=CC(=O)N1CCC[C@@H](n2nc(-c3ccc(Oc4ccccc4)cc3)c3c(N)ncnc32)C1 [Ibrutinib] + Nc1ncn([C@H]2C[C@H](O)[C@@H](CO)O2)c(=O)n1 [Decitabine] (partner 2 µM)
Method in brief: as §1

Cell Line	relative viability (PAC-1 + Linsitinib; first compound 0.02 µM)	relative viability (PAC-1 + Linsitinib; first compound 0.06325 µM)	relative viability (PAC-1 + Linsitinib; first compound 0.2 µM)	relative viability (PAC-1 + Linsitinib; first compound 2 µM)	relative viability (Ibrutinib + Lapatinib; first compound 0.005 µM)	relative viability (Ibrutinib + Lapatinib; first compound 0.01581 µM)	relative viability (Ibrutinib + Lapatinib; first compound 0.05 µM)	relative viability (Ibrutinib + Lapatinib; first compound 0.1581 µM)	relative viability (Ibrutinib + Lapatinib; first compound 0.5 µM)	relative viability (Ibrutinib + AZD7762; first compound 0.005 µM)	relative viability (Ibrutinib + AZD7762; first compound 0.01581 µM)	relative viability (Ibrutinib + AZD7762; first compound 0.05 µM)	relative viability (Ibrutinib + AZD7762; first compound 0.1581 µM)	relative viability (Ibrutinib + AZD7762; first compound 0.5 µM)	relative viability (Ibrutinib + Decitabine; first compound 0.005 µM)	relative viability (Ibrutinib + Decitabine; first compound 0.01581 µM)	relative viability (Ibrutinib + Decitabine; first compound 0.05 µM)	relative viability (Ibrutinib + Decitabine; first compound 0.1581 µM)	relative viability (Ibrutinib + Decitabine; first compound 0.5 µM)
NCI-H1299	0.947	0.963	0.953	0.96	0.973	0.984	0.977	0.979	0.969										
NCI-H1563	1.15	1.32	1.28	1.19	0.867	0.866	0.959	0.945	1.02										
NCI-H1648										0.697	0.66	0.673	0.762	0.865	0.509	0.434	0.518	0.433	0.364
NCI-H1650					0.685	0.734	0.843	0.682	0.844						0.41	0.379	0.512	0.402	0.444
NCI-H1703	0.646	0.423	0.765	0.932			1.06	1.16	0.684		0.126		0.148	0.19					
NCI-H2009	1.16	1.21	1.17	1.15	0.952	0.945	0.94	0.65	0.988						0.375	0.373	0.372	0.46	0.415
NCI-H2023	0.642	0.615	0.512	0.876	0.622	0.711	0.772	0.818	0.868						0.245	0.234	0.249	0.208	0.23
NCI-H2170					0.247	0.258	0.245	0.25	0.26	0.699	0.695	0.655	0.769	0.182	0.438	0.47	0.389	0.457	0.173
NCI-H2228	0.575	0.787	0.603	0.694	0.746	0.974	0.833	0.884	1.1										
NCI-H2342										0.317	0.6	0.499	0.472	0.345	0.739	0.64	0.693	0.708	0.563
SK-LU-1	1.17	1.06	1.04	0.716	0.88	0.76	0.838	0.937	0.905						0.592	0.664	0.626	0.571	0.617
SW 900										0.472	0.565	0.597	0.513	0.512	0.401	0.509	0.412	0.432	0.458
SW 1573	0.826	0.76	0.759	0.914	1.01	1.22	1.3	1	1.22						0.364	0.459	0.482	0.412	0.683
UMC-11	0.997	1.03	0.996	1.04	0.545	0.978	1.1	0.87	0.907							0.588	0.452	0.596	0.789
